The values that follow come from patent publication US9216999B2, “Substituted pyrrolo[2,3-h][1,6]naphthyridines and compositions thereof as JAK inhibitors” (priority 2011, dated 2015).

Assay type in all cases: biochemical
Holding throughout (conditions): ATP 100 μM

For one experiment, the target named is JAK2 (Homo sapiens (Human), UniProt O60674). The experiment can be described thus: Enzyme assay (Assay Example^a 1), JAK2.
Another experiment deals with JAK3 (Homo sapiens (Human), UniProt P52333). Nature of the experiment: Enzyme assay (Assay Example^a 1), JAK3.
Chain of JAK3 (P52333 whole entry): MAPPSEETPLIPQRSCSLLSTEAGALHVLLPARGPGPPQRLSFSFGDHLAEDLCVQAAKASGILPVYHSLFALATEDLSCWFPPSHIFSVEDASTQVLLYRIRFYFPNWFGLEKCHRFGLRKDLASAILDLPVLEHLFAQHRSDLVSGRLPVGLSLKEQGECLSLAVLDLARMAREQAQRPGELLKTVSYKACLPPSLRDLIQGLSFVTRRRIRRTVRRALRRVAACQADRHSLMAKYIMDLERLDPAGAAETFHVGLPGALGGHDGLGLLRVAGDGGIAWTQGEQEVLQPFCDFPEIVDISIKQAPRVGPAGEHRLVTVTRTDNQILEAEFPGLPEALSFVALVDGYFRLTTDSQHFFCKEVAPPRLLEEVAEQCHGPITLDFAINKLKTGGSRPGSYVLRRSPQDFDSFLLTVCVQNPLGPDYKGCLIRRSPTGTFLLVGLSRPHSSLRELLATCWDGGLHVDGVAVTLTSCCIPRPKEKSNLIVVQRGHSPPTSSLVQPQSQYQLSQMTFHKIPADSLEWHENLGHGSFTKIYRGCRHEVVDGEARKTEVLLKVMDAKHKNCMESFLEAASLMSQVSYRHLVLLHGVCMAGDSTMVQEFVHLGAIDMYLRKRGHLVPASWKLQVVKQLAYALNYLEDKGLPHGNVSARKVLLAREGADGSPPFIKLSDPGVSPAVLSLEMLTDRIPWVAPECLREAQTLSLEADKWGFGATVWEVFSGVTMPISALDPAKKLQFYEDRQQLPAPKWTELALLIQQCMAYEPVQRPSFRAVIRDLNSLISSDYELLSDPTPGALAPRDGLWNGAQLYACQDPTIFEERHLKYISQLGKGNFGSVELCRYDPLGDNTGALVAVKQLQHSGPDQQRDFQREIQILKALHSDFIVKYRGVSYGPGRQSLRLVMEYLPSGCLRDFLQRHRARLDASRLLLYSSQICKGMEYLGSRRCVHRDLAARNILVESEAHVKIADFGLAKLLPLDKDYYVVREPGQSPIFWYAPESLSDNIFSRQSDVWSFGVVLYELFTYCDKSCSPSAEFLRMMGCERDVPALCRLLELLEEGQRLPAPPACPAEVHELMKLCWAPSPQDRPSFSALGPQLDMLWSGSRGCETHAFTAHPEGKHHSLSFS
The next experiment concerns the target JAK1 (Homo sapiens (Human), UniProt P23458). Nature of the experiment: Enzyme assay (Assay Example^a 1), JAK1.
A further experiment concerns the target Tyk2 (Homo sapiens (Human), UniProt P29597). Nature of the experiment: Enzyme assay (Assay Example^a 1), Tyk2.

Chain of Tyk2 (P29597 whole entry): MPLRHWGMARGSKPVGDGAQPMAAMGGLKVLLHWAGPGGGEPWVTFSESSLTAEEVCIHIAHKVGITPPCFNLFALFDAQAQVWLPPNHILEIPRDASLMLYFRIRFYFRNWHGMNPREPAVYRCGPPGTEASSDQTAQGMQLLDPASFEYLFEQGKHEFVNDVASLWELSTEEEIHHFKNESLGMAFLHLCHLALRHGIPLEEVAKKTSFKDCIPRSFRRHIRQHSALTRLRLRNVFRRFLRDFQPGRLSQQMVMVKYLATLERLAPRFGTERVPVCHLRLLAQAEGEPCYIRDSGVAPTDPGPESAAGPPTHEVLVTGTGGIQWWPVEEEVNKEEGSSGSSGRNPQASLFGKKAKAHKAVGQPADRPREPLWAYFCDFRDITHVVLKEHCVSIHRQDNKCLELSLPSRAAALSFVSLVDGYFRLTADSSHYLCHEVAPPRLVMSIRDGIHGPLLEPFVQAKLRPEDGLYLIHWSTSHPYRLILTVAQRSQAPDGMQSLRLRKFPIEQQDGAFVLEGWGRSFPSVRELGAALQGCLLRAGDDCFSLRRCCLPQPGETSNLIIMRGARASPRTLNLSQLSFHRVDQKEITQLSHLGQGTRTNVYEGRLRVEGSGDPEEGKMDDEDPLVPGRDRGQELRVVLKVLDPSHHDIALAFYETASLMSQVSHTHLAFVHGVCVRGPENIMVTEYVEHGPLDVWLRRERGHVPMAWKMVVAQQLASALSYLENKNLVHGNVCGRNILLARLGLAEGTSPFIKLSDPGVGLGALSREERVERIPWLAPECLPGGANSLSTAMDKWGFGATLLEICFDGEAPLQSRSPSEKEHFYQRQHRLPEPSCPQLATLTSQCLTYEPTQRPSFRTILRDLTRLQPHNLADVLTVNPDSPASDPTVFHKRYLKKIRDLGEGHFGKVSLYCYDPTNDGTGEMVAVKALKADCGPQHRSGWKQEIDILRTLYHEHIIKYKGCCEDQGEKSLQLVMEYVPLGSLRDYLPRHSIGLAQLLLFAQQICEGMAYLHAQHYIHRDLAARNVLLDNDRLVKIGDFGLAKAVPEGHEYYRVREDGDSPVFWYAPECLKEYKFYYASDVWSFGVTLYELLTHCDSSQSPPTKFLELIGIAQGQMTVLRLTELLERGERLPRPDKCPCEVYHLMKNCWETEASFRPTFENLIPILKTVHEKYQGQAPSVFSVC

Usually IC50 stands for the point on the concentration scale where inhibition reaches its midpoint. For the compound `FC(F)(F)C(F)(F)CN[C@H]1CC[C@H](c2nnn3cnc4[nH]ccc4c23)CC1` [383b, trans-N-(2,2,3,3,3-pentafluoropropyl)-4-(7H-pyrrolo[3,2-e][1,2,3]triazolo[1,5-c]pyrimidin-1-yl)cyclohexanamine], the half-maximal inhibitory concentration (IC50) against JAK2 is 0.013 µM; at JAK3, 0.5 µM; at JAK1 it was 0.0015 µM; at Tyk2, 0.17 µM.
Take `N#Cc1ccc(CCNC[C@H]2CC[C@H](c3nnn4cnc5[nH]ccc5c34)CC2)cc1` [compound 282, 4-[2-({[trans-4-(7H-pyrrolo[3,2-e][1,2,3]triazolo[1,5-c]pyrimidin-1-yl)cyclohexyl]methyl}amino)ethyl]benzonitrile]: the concentration for half-maximal inhibition (IC50) on JAK2 stood at 0.07 µM; against JAK3 it was 0.39 µM; against JAK1, 0.0052 µM; at Tyk2, 0.08 µM.
For `O=C(NCCO)[C@H]1CC[C@H](c2nnn3cnc4[nH]ccc4c23)CC1` [compound 360, trans-N-(2-hydroxyethyl)-4-(7H-pyrrolo[3,2-e][1,2,3]triazolo[1,5-c]pyrimidin-1-yl)cyclohexanecarboxamide] the same measures were 0.1 µM, over 1 µM, 0.026 µM and 0.33 µM.
On the same counts, the results for `N#Cc1cc(NC[C@H]2CC[C@H](c3nnn4cnc5[nH]ccc5c34)CC2)ccc1F` [compound 252, 5-({[trans-4-(7H-pyrrolo[3,2-e][1,2,3]triazolo[1,5-c]pyrimidin-1-yl)cyclohexyl]methyl}amino)-2-fluorobenzonitrile] are 0.06 µM, over 1 µM, 0.017 µM and over 1 µM.
Turning to `CN(CCC#N)c1ccc(CN2CCC(c3nnn4cnc5[nH]ccc5c34)CC2)cc1` [compound 226, 3-[(4-{[4-(7H-pyrrolo[3,2-e][1,2,3]triazolo[1,5-c]pyrimidin-1-yl)piperidin-1-yl]methyl}phenyl)(methyl)amino]propanenitrile], the 50% inhibitory concentration (IC50) on JAK2 is over 1 µM; on JAK3 it was over 1 µM; against JAK1, 0.28 µM; against Tyk2 it was over 1 µM.
For the compound `Fc1ccc(CN2CCC(c3nnn4cnc5[nH]ccc5c34)CC2)nc1` [compound 162, 1-{1-[(5-fluoropyridin-2-yl)methyl]piperidin-4-yl}-7H-pyrrolo[3,2-e][1,2,3]triazolo[1,5-c]pyrimidine], the IC50 against JAK2 (Table^a 154) was 0.2 µM; against JAK3 (Table^a 154) it was 0.68 µM; against JAK1 (Table^a 154), 0.032 µM; against Tyk2 (Table^a 154) it was over 1 µM.
Turning to `c1cc2c(ncn3nnc(C4CCC4)c23)[nH]1` [compound 67], the IC50 against JAK2 (Table^a 154) is 0.2 µM; at JAK3 (Table^a 154), 0.65 µM; at JAK1 (Table^a 154), 0.052 µM; at Tyk2 (Table^a 154), 0.41 µM.
For the compound `c1cc2c(ncn3nnc([C@H]4CC[C@H](CNC5CSC5)CC4)c23)[nH]1` [compound 344, N-{[trans-4-(7H-pyrrolo[3,2-e][1,2,3]triazolo[1,5-c]pyrimidin-1-yl)cyclohexyl]methyl}thietan-3-amine], the IC50 was 0.068 µM on JAK2, 0.52 µM on JAK3, 0.012 µM at JAK1 and 0.39 µM against Tyk2.
For `OC(CNC[C@H]1CC[C@H](c2nnn3cnc4[nH]ccc4c23)CC1)C(F)(F)F` (stereo partly drawn) [compound 343, 3-({[trans-4-(7H-pyrrolo[3,2-e][1,2,3]triazolo[1,5-c]pyrimidin-1-yl)cyclohexyl]methyl}amino)-1,1,1-trifluoropropan-2-ol] the same measures were 0.063 µM, 0.33 µM, 0.01 µM and 0.44 µM.
`Cc1cnc(CNC[C@H]2CC[C@H](c3nnn4cnc5[nH]ccc5c34)CC2)cn1` [compound 183, 1-[trans-4-(7H-pyrrolo[3,2-e][1,2,3]triazolo[1,5-c]pyrimidin-1-yl)cyclohexyl]-N-[(5-methylpyrazin-2-yl)methyl]methanamine]: the IC50 against JAK2 (Table^a 154) is 0.055 µM; against JAK3 (Table^a 154) it was 0.8 µM; on JAK1 (Table^a 154) it was 0.0061 µM; on Tyk2 (Table^a 154), 0.041 µM.
In the case of `O=C(NCCc1ccc(F)cc1)[C@H]1CC[C@H](c2nnn3cnc4[nH]ccc4c23)CC1` [compound 208, trans-N-(4-fluorophenethyl)-4-(7H-pyrrolo[3,2-e][1,2,3]triazolo[1,5-c]pyrimidin-1-yl)cyclohexanecarboxamide], the IC50 came to 0.033 µM against JAK2 (Table^a 154), 0.36 µM at JAK3 (Table^a 154), 0.0028 µM on JAK1 (Table^a 154) and 0.37 µM against Tyk2 (Table^a 154).
Regarding `N#C[C@H]1CCN(C[C@H]2CC[C@H](c3nnn4cnc5[nH]ccc5c34)CC2)C1` [compound 187, (S)-1-{[trans-4-(7H-pyrrolo[3,2-e][1,2,3]triazolo[1,5-c]pyrimidin-1-yl)cyclohexyl]methyl}pyrrolidine-3-carbonitrile], the IC50 amounted to 0.038 µM at JAK2 (Table^a 154), 0.37 µM at JAK3 (Table^a 154), 0.0076 µM against JAK1 (Table^a 154) and 0.36 µM on Tyk2 (Table^a 154).
For `OC[C@@H]1CCCN1C[C@H]1CC[C@H](c2nnn3cnc4[nH]ccc4c23)CC1` [compound 266, ((S)-1-{[trans-4-(7H-pyrrolo[3,2-e][1,2,3]triazolo[1,5-c]pyrimidin-1-yl)cyclohexyl]methyl}pyrrolidin-2-yl)methanol], the IC50 on JAK2 was 0.11 µM; at JAK3, over 1 µM; against JAK1, 0.025 µM; at Tyk2 it was 0.35 µM.
Turning to `O=C1OCCC1NC[C@H]1CC[C@H](c2nnn3cnc4[nH]ccc4c23)CC1` (stereo partly drawn) [compound 279, 3-({[trans-4-(7H-pyrrolo[3,2-e][1,2,3]triazolo[1,5-c]pyrimidin-1-yl)cyclohexyl]methyl}amino)dihydrofuran-2(3H)-one], the IC50 against JAK2 is 0.044 µM; at JAK3 it was 0.53 µM; against JAK1, 0.0074 µM; at Tyk2 it was 0.2 µM.
For the compound `N#Cc1cc(NC[C@H]2CC[C@H](c3nnn4cnc5[nH]ccc5c34)CC2)ccc1Cl` [compound 263, 5-({[trans-4-(7H-pyrrolo[3,2-e][1,2,3]triazolo[1,5-c]pyrimidin-1-yl)cyclohexyl]methyl}amino)-2-chlorobenzonitrile], the IC50 is 0.22 µM at JAK2, over 1 µM on JAK3, 0.027 µM against JAK1 and over 1 µM at Tyk2.
Take `FC(F)C(F)(F)Oc1ccc(CN2CCC(c3nnn4cnc5[nH]ccc5c34)CC2)cc1` [compound 169, 1-{1-[4-(1,1,2,2-tetrafluoroethoxy)benzyl]piperidin-4-yl}-7H-pyrrolo[3,2-e][1,2,3]triazolo[1,5-c]pyrimidine]: the IC50 at JAK2 (Table^a 154) was 0.052 µM; against JAK3 (Table^a 154), 0.58 µM; against JAK1 (Table^a 154), 0.005 µM; against Tyk2 (Table^a 154), over 1 µM.
In the case of `c1cc2c(ncn3nnc([C@H]4CC[C@H](CNCC5CC5)CC4)c23)[nH]1` [compound 285, 1-[trans-4-(7H-pyrrolo[3,2-e][1,2,3]triazolo[1,5-c]pyrimidin-1-yl)cyclohexyl]-N-(cyclopropylmethyl)methanamine], the half-maximal inhibitory concentration (IC50) at JAK2 was determined as 0.12 µM; against JAK3 it was 0.61 µM; on JAK1, 0.0091 µM; on Tyk2 it was 0.068 µM.
For `c1ccc(CNC[C@H]2CC[C@H](c3nnn4cnc5[nH]ccc5c34)CC2)cc1` [compound 193, 1-[trans-4-(7H-pyrrolo[3,2-e][1,2,3]triazolo[1,5-c]pyrimidin-1-yl)cyclohexyl]-N-benzylmethanamine], the IC50 is 0.041 µM against JAK2 (Table^a 154), 0.28 µM against JAK3 (Table^a 154), 0.0053 µM against JAK1 (Table^a 154) and 0.0055 µM against Tyk2 (Table^a 154).
On the same counts, the results for `C[C@@H](O)CNC[C@H]1CC[C@H](c2nnn3cnc4[nH]ccc4c23)CC1` [compound 185, (R)-1-({[trans-4-(7H-pyrrolo[3,2-e][1,2,3]triazolo[1,5-c]pyrimidin-1-yl)cyclohexyl]methyl}amino)propan-2-ol] are 0.051 µM, 0.32 µM, 0.0081 µM and 0.13 µM.
`OC12CC3CC(C1)CC(c1nnn4cnc5[nH]ccc5c14)(C3)C2` [compound 445, 3-(7H-Pyrrolo[3,2-e][1,2,3]triazolo[1,5-c]pyrimidin-1-yl)adamantan-1-ol]: the IC50 against JAK2 came to 0.13 µM; against JAK3 it was 0.22 µM; on JAK1, 0.031 µM; against Tyk2 it was 0.052 µM.
On the same counts, the results for `c1cc2c(ncn3nnc([C@H]4CC[C@H](CNC5CCCC5)CC4)c23)[nH]1` [compound 284, N-{[trans-4-(7H-pyrrolo[3,2-e][1,2,3]triazolo[1,5-c]pyrimidin-1-yl)cyclohexyl]methyl}cyclopentanamine] are 0.15 µM, over 1 µM, 0.017 µM and 0.32 µM.
Take `O=S(=O)(c1ccc(NC[C@H]2CC[C@H](c3nnn4cnc5[nH]ccc5c34)CC2)cc1)C(F)(F)F` [compound 173, N-{[trans-4-(7H-pyrrolo[3,2-e][1,2,3]triazolo[1,5-c]pyrimidin-1-yl)cyclohexyl]methyl}-4-[(trifluoromethyl)sulfonyl]aniline]: the half-maximal inhibitory concentration (IC50) against JAK2 (Table^a 154) was 0.26 µM; against JAK3 (Table^a 154) it was over 1 µM; against JAK1 (Table^a 154), 0.034 µM; against Tyk2 (Table^a 154), 0.46 µM.
Consider `O=S(=O)(C[C@H]1CC[C@H](c2nnn3cnc4[nH]ccc4c23)CC1)C1CC1` [compound 366, 1-{trans-4-[(cyclopropylsulfonyl)methyl]cyclohexyl}-7H-pyrrolo[3,2-e][1,2,3]triazolo[1,5-c]pyrimidine], for which the IC50 against JAK2 came out at 0.028 µM; at JAK3, 0.28 µM; on JAK1, 0.011 µM; on Tyk2, 0.26 µM.
On the same counts, the results for `O=C1COc2cc(NC[C@H]3CC[C@H](c4nnn5cnc6[nH]ccc6c45)CC3)ccc2N1` [compound 273, 7-({[trans-4-(7H-pyrrolo[3,2-e][1,2,3]triazolo[1,5-c]pyrimidin-1-yl)cyclohexyl]methyl}amino)-2H-benzo[b][1,4]oxazin-3(4H)-one] are 0.021 µM, 0.57 µM, 0.0046 µM and 0.24 µM.
